Assay results taken from ChEMBL document CHEMBL4118198, “Synthesis and antiviral evaluation of novel peptidomimetics as norovirus protease inhibitors” (Bioorg Med Chem Lett, 2018).

The compounds below were run against T1, Protease (Norovirus Hu/GII.4-2002/WeertE022/2002/NL) (UniProt G1FEK8) (assay: (§1) Inhibition of Norovirus prototypic GII.4 3CL protease using HiLyte Fluor 488-labelled DFELQGPK as substrate incubated for 90 mins measured every mins for 20 mins by FRET assay). Settings: Norovirus GII.4.
T1 sequence (whole entry): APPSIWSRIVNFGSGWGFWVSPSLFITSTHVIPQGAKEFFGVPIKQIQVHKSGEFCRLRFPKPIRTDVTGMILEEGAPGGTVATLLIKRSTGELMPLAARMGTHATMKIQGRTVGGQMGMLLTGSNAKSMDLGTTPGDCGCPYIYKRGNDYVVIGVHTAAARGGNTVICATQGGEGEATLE

Structure (SMILES)	IC90 [µM]
CC(C)C[C@H](NC(=O)[C@H](Cc1cccc2ccccc12)NC(=O)OCc1ccccc1)C(=O)NC(C[C@@H]1CCNC1=O)C1OC1S(C)(=O)=O (stereo partly specified)	> 100
CC(C)C[C@H](NC(=O)[C@H](Cc1cccc2ccccc12)NC(=O)OCc1ccccc1)C(=O)N[C@@H](C[C@@H]1CCCNC1=O)C(O)S(=O)(=O)O (stereo partly specified)	14
CC(C)C[C@H](NC(=O)[C@H](Cc1cccc2ccccc12)NC(=O)OCc1ccccc1)C(=O)N[C@H](/C=C(\C#N)C(N)=O)C[C@@H]1CCCNC1=O	3.6
CC(C)C[C@H](NC(=O)[C@H](Cc1cccc2ccccc12)NC(=O)OCc1ccccc1)C(=O)N[C@@H](C[C@@H]1CCCNC1=O)C(=O)C(F)(F)F	14
CC(C)C[C@H](NC(=O)[C@H](Cc1cccc2ccccc12)NC(=O)OCc1ccccc1)C(=O)N[C@H](C=O)C[C@@H]1CCCNC1=O	1.19
CC(C)C[C@H](NC(=O)[C@H](Cc1cccc2ccccc12)NC(=O)OCc1ccccc1)C(=O)N[C@H](CO)CCC(=O)N1CCC1	5.54

What follows are compounds tested against T2, Protease (Norovirus Hu/GII.4-2002/WeertE022/2002/NL, UniProt G1FEK8) (assay: as §1). Settings: not given.
T2 sequence (G1FEK8 whole entry): T1 sequence (whole entry)
Parameters: species or system Norovirus GII.4

Structure (SMILES)	IC50 [µM]
CC(C)C[C@H](NC(=O)[C@H](Cc1cccc2ccccc12)NC(=O)OCc1ccccc1)C(=O)NC(C[C@@H]1CCNC1=O)C1OC1S(C)(=O)=O (stereo partly specified)	30
CC(C)C[C@H](NC(=O)[C@H](Cc1cccc2ccccc12)NC(=O)OCc1ccccc1)C(=O)N[C@@H](C[C@@H]1CCCNC1=O)C(O)S(=O)(=O)O (stereo partly specified)	2.63
CC(C)C[C@H](NC(=O)[C@H](Cc1cccc2ccccc12)NC(=O)OCc1ccccc1)C(=O)N[C@H](/C=C(\C#N)C(N)=O)C[C@@H]1CCCNC1=O	1.17
CC(C)C[C@H](NC(=O)[C@H](Cc1cccc2ccccc12)NC(=O)OCc1ccccc1)C(=O)N[C@@H](C[C@@H]1CCCNC1=O)C(=O)C(F)(F)F	2.63
CC(C)C[C@H](NC(=O)[C@H](Cc1cccc2ccccc12)NC(=O)OCc1ccccc1)C(=O)N[C@H](C=O)C[C@@H]1CCCNC1=O	0.15
CC(C)C[C@H](NC(=O)[C@H](Cc1cccc2ccccc12)NC(=O)OCc1ccccc1)C(=O)N[C@H](CO)CCC(=O)N1CCC1	0.502

What follows are compounds tested against Nonstructural polyprotein (Norovirus Hu/GI/10360/2010/VNM) (UniProt I1U3K2) (assay: (§2) Inhibition of Norovirus prototypic GI.1 3CL protease using HiLyte Fluor 488-labelled DFELQGPK as substrate incubated for 90 mins measured every mins for 20 mins by FRET assay). Settings: Norovirus GI.1.
Chain of Nonstructural polyprotein (Norovirus Hu/GI/10360/2010/VNM) (I1U3K2 as listed by the source): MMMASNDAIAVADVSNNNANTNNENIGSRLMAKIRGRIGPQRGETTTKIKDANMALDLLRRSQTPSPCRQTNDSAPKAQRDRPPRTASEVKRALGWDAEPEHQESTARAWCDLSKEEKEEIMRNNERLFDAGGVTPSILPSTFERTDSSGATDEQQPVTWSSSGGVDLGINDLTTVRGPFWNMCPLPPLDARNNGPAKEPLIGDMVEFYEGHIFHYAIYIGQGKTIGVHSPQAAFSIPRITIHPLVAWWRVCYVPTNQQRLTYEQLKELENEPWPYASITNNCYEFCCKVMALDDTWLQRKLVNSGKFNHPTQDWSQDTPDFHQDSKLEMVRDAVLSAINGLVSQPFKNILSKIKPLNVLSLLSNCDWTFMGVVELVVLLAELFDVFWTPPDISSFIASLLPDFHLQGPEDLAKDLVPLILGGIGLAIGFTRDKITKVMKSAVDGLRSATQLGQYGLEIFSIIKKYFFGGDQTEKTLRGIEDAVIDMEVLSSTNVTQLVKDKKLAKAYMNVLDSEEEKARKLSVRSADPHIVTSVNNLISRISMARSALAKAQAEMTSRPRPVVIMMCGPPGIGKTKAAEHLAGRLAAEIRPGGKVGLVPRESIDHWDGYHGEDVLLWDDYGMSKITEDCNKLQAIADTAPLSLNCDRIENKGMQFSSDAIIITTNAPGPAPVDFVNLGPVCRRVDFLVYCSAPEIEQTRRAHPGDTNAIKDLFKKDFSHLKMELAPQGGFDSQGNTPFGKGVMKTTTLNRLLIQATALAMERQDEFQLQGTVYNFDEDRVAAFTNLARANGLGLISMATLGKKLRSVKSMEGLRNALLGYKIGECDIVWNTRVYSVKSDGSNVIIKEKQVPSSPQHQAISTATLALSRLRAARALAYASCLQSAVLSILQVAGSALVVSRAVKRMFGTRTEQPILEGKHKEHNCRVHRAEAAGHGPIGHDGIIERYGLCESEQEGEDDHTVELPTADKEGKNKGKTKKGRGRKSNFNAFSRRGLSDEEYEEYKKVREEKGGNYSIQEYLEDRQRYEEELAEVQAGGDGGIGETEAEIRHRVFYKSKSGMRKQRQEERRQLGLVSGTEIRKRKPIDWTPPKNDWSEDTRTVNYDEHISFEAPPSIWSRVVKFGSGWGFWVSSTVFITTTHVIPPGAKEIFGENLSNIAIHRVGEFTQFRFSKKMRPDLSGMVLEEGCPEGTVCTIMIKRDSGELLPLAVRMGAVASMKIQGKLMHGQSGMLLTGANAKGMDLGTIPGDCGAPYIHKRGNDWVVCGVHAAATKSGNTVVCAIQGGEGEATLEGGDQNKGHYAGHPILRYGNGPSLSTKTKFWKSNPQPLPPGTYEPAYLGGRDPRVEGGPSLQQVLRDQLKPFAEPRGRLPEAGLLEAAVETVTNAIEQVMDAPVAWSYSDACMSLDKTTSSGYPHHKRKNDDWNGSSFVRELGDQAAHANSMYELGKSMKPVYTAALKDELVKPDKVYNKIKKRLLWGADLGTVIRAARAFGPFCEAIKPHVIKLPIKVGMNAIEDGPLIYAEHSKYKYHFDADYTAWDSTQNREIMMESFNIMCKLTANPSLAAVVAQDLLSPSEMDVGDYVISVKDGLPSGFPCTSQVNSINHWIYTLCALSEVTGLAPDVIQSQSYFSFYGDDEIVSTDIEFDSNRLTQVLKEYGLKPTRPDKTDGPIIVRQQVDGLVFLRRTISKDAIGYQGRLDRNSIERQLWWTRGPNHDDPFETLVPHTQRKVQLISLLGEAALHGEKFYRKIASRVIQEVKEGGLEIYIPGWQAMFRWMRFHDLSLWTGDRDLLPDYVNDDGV

Structure (SMILES)	IC90 [µM]
CC(C)C[C@H](NC(=O)[C@H](Cc1cccc2ccccc12)NC(=O)OCc1ccccc1)C(=O)N[C@@H](C[C@@H]1CCCNC1=O)C(O)S(=O)(=O)O (stereo partly specified)	2.24
CC(C)C[C@H](NC(=O)[C@H](Cc1cccc2ccccc12)NC(=O)OCc1ccccc1)C(=O)N[C@H](/C=C(\C#N)C(N)=O)C[C@@H]1CCCNC1=O	1.7
CC(C)C[C@H](NC(=O)[C@H](Cc1cccc2ccccc12)NC(=O)OCc1ccccc1)C(=O)N[C@@H](C[C@@H]1CCCNC1=O)C(=O)C(F)(F)F	2.24
CC(C)C[C@H](NC(=O)[C@H](Cc1cccc2ccccc12)NC(=O)OCc1ccccc1)C(=O)N[C@H](C=O)C[C@@H]1CCCNC1=O	0.155

The compounds below were run against Nonstructural polyprotein (Norovirus Hu/GI/10360/2010/VNM, UniProt I1U3K2) (assay: as §2). Settings: not given.
Parameters: species or system Norovirus GI.1

Chain of Nonstructural polyprotein (I1U3K2 whole entry): as the sequence (I1U3K2 as listed by the source) above

Structure (SMILES)	IC50 [µM]
CC(C)C[C@H](NC(=O)[C@H](Cc1cccc2ccccc12)NC(=O)OCc1ccccc1)C(=O)NC(C[C@@H]1CCNC1=O)C1OC1S(C)(=O)=O (stereo partly specified)	> 10
CC(C)C[C@H](NC(=O)[C@H](Cc1cccc2ccccc12)NC(=O)OCc1ccccc1)C(=O)N[C@@H](C[C@@H]1CCCNC1=O)C(O)S(=O)(=O)O (stereo partly specified)	0.654
CC(C)C[C@H](NC(=O)[C@H](Cc1cccc2ccccc12)NC(=O)OCc1ccccc1)C(=O)N[C@H](/C=C(\C#N)C(N)=O)C[C@@H]1CCCNC1=O	0.593
CC(C)C[C@H](NC(=O)[C@H](Cc1cccc2ccccc12)NC(=O)OCc1ccccc1)C(=O)N[C@@H](C[C@@H]1CCCNC1=O)C(=O)C(F)(F)F	0.654
CC(C)C[C@H](NC(=O)[C@H](Cc1cccc2ccccc12)NC(=O)OCc1ccccc1)C(=O)N[C@H](C=O)C[C@@H]1CCCNC1=O	0.08
CC(C)C[C@H](NC(=O)[C@H](Cc1cccc2ccccc12)NC(=O)OCc1ccccc1)C(=O)N[C@H](CO)CCC(=O)N1CCC1	> 1

Each compound was assayed on Norovirus (assay: Antiviral activity against Norovirus prototypic GI.1 infected in human HG23 cells assessed as inhibition of viral RNA replication after 4 days by RT-qPCR method). Settings: Norovirus, HG23, 96 h.
Assay type: functional, organism-based, Norovirus GI.1

Structure (SMILES)	EC90 [µM]
CC(C)C[C@H](NC(=O)[C@H](Cc1cccc2ccccc12)NC(=O)OCc1ccccc1)C(=O)NC(C[C@@H]1CCNC1=O)C1OC1S(C)(=O)=O (stereo partly specified)	> 20
CC(C)C[C@H](NC(=O)[C@H](Cc1cccc2ccccc12)NC(=O)OCc1ccccc1)C(=O)N[C@@H](C[C@@H]1CCCNC1=O)C(O)S(=O)(=O)O (stereo partly specified)	2.45
CC(C)C[C@H](NC(=O)[C@H](Cc1cccc2ccccc12)NC(=O)OCc1ccccc1)C(=O)N[C@H](/C=C(\C#N)C(N)=O)C[C@@H]1CCCNC1=O	7.82
CC(C)C[C@H](NC(=O)[C@H](Cc1cccc2ccccc12)NC(=O)OCc1ccccc1)C(=O)N[C@@H](C[C@@H]1CCCNC1=O)C(=O)C(F)(F)F	2.45
CC(C)C[C@H](NC(=O)[C@H](Cc1cccc2ccccc12)NC(=O)OCc1ccccc1)C(=O)N[C@H](C=O)C[C@@H]1CCCNC1=O	0.92
CC(C)C[C@H](NC(=O)[C@H](Cc1cccc2ccccc12)NC(=O)OCc1ccccc1)C(=O)N[C@H](CO)CCC(=O)N1CCC1	17.3

Same assay, conditions: Norovirus, HG23, 96 h; read-out: EC50

Structure (SMILES)	EC50 [µM]
CC(C)C[C@H](NC(=O)[C@H](Cc1cccc2ccccc12)NC(=O)OCc1ccccc1)C(=O)NC(C[C@@H]1CCNC1=O)C1OC1S(C)(=O)=O (stereo partly specified)	4.33
CC(C)C[C@H](NC(=O)[C@H](Cc1cccc2ccccc12)NC(=O)OCc1ccccc1)C(=O)N[C@@H](C[C@@H]1CCCNC1=O)C(O)S(=O)(=O)O (stereo partly specified)	0.39
CC(C)C[C@H](NC(=O)[C@H](Cc1cccc2ccccc12)NC(=O)OCc1ccccc1)C(=O)N[C@H](/C=C(\C#N)C(N)=O)C[C@@H]1CCCNC1=O	0.75
CC(C)C[C@H](NC(=O)[C@H](Cc1cccc2ccccc12)NC(=O)OCc1ccccc1)C(=O)N[C@@H](C[C@@H]1CCCNC1=O)C(=O)C(F)(F)F	0.39
CC(C)C[C@H](NC(=O)[C@H](Cc1cccc2ccccc12)NC(=O)OCc1ccccc1)C(=O)N[C@H](C=O)C[C@@H]1CCCNC1=O	0.42
CC(C)C[C@H](NC(=O)[C@H](Cc1cccc2ccccc12)NC(=O)OCc1ccccc1)C(=O)N[C@H](CO)CCC(=O)N1CCC1	6.19

Each compound was assayed on Huh-7 (assay: Cytotoxicity against human HuH7 cells assessed as reduction in cell viability). Settings: not given.
Assay type: cell-based

Structure (SMILES)	CC50 [µM]
CC(C)C[C@H](NC(=O)[C@H](Cc1cccc2ccccc12)NC(=O)OCc1ccccc1)C(=O)N[C@@H](C[C@@H]1CCCNC1=O)C(O)S(=O)(=O)O (stereo partly specified)	11.2
CC(C)C[C@H](NC(=O)[C@H](Cc1cccc2ccccc12)NC(=O)OCc1ccccc1)C(=O)N[C@H](/C=C(\C#N)C(N)=O)C[C@@H]1CCCNC1=O	8.4
CC(C)C[C@H](NC(=O)[C@H](Cc1cccc2ccccc12)NC(=O)OCc1ccccc1)C(=O)N[C@@H](C[C@@H]1CCCNC1=O)C(=O)C(F)(F)F	11.2
CC(C)C[C@H](NC(=O)[C@H](Cc1cccc2ccccc12)NC(=O)OCc1ccccc1)C(=O)N[C@H](C=O)C[C@@H]1CCCNC1=O	25.7

What follows are compounds tested on PBMC (assay: Cytotoxicity against human PBMC assessed as reduction in cell viability after 6 days by trypan blue exclusion assay). Settings: 144 h.
Assay type: cell-based

Structure (SMILES)	CC50 [µM]
CC(C)C[C@H](NC(=O)[C@H](Cc1cccc2ccccc12)NC(=O)OCc1ccccc1)C(=O)NC(C[C@@H]1CCNC1=O)C1OC1S(C)(=O)=O (stereo partly specified)	> 100
CC(C)C[C@H](NC(=O)[C@H](Cc1cccc2ccccc12)NC(=O)OCc1ccccc1)C(=O)N[C@@H](C[C@@H]1CCCNC1=O)C(O)S(=O)(=O)O (stereo partly specified)	43.8
CC(C)C[C@H](NC(=O)[C@H](Cc1cccc2ccccc12)NC(=O)OCc1ccccc1)C(=O)N[C@H](/C=C(\C#N)C(N)=O)C[C@@H]1CCCNC1=O	45.4
CC(C)C[C@H](NC(=O)[C@H](Cc1cccc2ccccc12)NC(=O)OCc1ccccc1)C(=O)N[C@@H](C[C@@H]1CCCNC1=O)C(=O)C(F)(F)F	43.8
CC(C)C[C@H](NC(=O)[C@H](Cc1cccc2ccccc12)NC(=O)OCc1ccccc1)C(=O)N[C@H](C=O)C[C@@H]1CCCNC1=O	23.6
CC(C)C[C@H](NC(=O)[C@H](Cc1cccc2ccccc12)NC(=O)OCc1ccccc1)C(=O)N[C@H](CO)CCC(=O)N1CCC1	18.4

What follows are compounds tested on CCRF-CEM (assay: Cytotoxicity against human CEM cells assessed as reduction in cell viability after 6 days by trypan blue exclusion assay). Settings: 144 h.
Assay type: cell-based

Structure (SMILES)	CC50 [µM]
CC(C)C[C@H](NC(=O)[C@H](Cc1cccc2ccccc12)NC(=O)OCc1ccccc1)C(=O)NC(C[C@@H]1CCNC1=O)C1OC1S(C)(=O)=O (stereo partly specified)	63.9
CC(C)C[C@H](NC(=O)[C@H](Cc1cccc2ccccc12)NC(=O)OCc1ccccc1)C(=O)N[C@@H](C[C@@H]1CCCNC1=O)C(O)S(=O)(=O)O (stereo partly specified)	18.3
CC(C)C[C@H](NC(=O)[C@H](Cc1cccc2ccccc12)NC(=O)OCc1ccccc1)C(=O)N[C@H](/C=C(\C#N)C(N)=O)C[C@@H]1CCCNC1=O	9.1
CC(C)C[C@H](NC(=O)[C@H](Cc1cccc2ccccc12)NC(=O)OCc1ccccc1)C(=O)N[C@@H](C[C@@H]1CCCNC1=O)C(=O)C(F)(F)F	18.3
CC(C)C[C@H](NC(=O)[C@H](Cc1cccc2ccccc12)NC(=O)OCc1ccccc1)C(=O)N[C@H](C=O)C[C@@H]1CCCNC1=O	31.6
CC(C)C[C@H](NC(=O)[C@H](Cc1cccc2ccccc12)NC(=O)OCc1ccccc1)C(=O)N[C@H](CO)CCC(=O)N1CCC1	2.2

What follows are compounds tested on Vero (assay: Cytotoxicity against African green monkey Vero cells assessed as reduction in cell viability after 3 days by hemocytometer). Settings: chlorocebus sabaeus, 72 h.
Assay type: cell-based

Structure (SMILES)	CC50 [µM]
CC(C)C[C@H](NC(=O)[C@H](Cc1cccc2ccccc12)NC(=O)OCc1ccccc1)C(=O)NC(C[C@@H]1CCNC1=O)C1OC1S(C)(=O)=O (stereo partly specified)	> 100
CC(C)C[C@H](NC(=O)[C@H](Cc1cccc2ccccc12)NC(=O)OCc1ccccc1)C(=O)N[C@@H](C[C@@H]1CCCNC1=O)C(O)S(=O)(=O)O (stereo partly specified)	> 100
CC(C)C[C@H](NC(=O)[C@H](Cc1cccc2ccccc12)NC(=O)OCc1ccccc1)C(=O)N[C@H](/C=C(\C#N)C(N)=O)C[C@@H]1CCCNC1=O	> 100
CC(C)C[C@H](NC(=O)[C@H](Cc1cccc2ccccc12)NC(=O)OCc1ccccc1)C(=O)N[C@@H](C[C@@H]1CCCNC1=O)C(=O)C(F)(F)F	> 100
CC(C)C[C@H](NC(=O)[C@H](Cc1cccc2ccccc12)NC(=O)OCc1ccccc1)C(=O)N[C@H](C=O)C[C@@H]1CCCNC1=O	19.8
CC(C)C[C@H](NC(=O)[C@H](Cc1cccc2ccccc12)NC(=O)OCc1ccccc1)C(=O)N[C@H](CO)CCC(=O)N1CCC1	8.6
